According to patent US11311010B2, “Lignin biomaterial as agricultural drug carrier” (Max-Planck-Gesellschaft zur Förderung der Wissenschaften …, priority 2016, dated 2022):
Values joined by “and” are separate entries in the source; they are usually repeats but may differ in a detail not shown here. Identical values can stand only once.

Tests used:
[1] = system: Phaeomoniella chlamydospora; assay: In vitro test in 96-well plates (spore germination, optical density); type: cell-based; settings: pos. control 50 μg, Pch, well row E
Protocol: (§1) The lignin particle-solutions were pipetted in various concentrations (1, 5 and 10 μg/mL) into the 96 wells. Several differing nanoparticles were tested (see FIGS. 10 and 12). Afterwards a spore suspension (in minimal medium) of Esca associated fungi, each fungus separately in three wells, was added to the lignin-particle solution. The final volume was 200 μl per well and 500 spores in those 200 μl (means 2,500 spores/mL). The 96-well plate was incubated at 26° C. for 48 h on a shaker with 120 rpm. The optical density was determined after 24 and 48 h using a lab-bench plate reader (BioRad) at a wavelength of 600 nm.
(§2) […] The optical density of the medium without spores was also measured.
(§3) The results of three replicates were afterwards combined to calculate the average value of all samples (see also the standard deviation in FIG. 10).
(§4) The numbers 1 to 10 and the letters A to H are the labeling of the 96-well plate as well as the grid of the test system. The Numbers 66 to 84 are explained as the tested Lignin-particle solutions, they differ in their composition and fungicide concentration (see also Table 2). The optical density is […] to the activity of the fungicide. […] Therefore higher values of the optical density stand for more sporulation and fungal growths and less biological activity of the lignin formulation (e.g., in A1, A2). A low optical density is characteristic for a high fungal toxicity and bioactivity (see in A5 and A6).

[2] = system: Phaeoacremonium aleophilum; assay: as above; type: cell-based; settings: pos. control 50 μg, Pal, well row F
Protocol: as §1, §2, §3, §4

SMILES: CP(=O)(O)CCC(N)C(=O)O (stereo not shown) [Glufosinat-Ammonium]
- optical density measured at 600 nm ([1]; first plate block): 0.192 and 0.180 and 0.200
- optical density measured at 600 nm ([1]; second plate block): 0.201 and 0.192 and 0.203
- optical density measured at 600 nm ([2]; first plate block): 0.220 and 0.212 and 0.206
- optical density measured at 600 nm ([2]; second plate block): 0.228 and 0.219 and 0.204
